# Source: patent publication US20050142169A1, “Palatability enhanced composition and method for animal consumption” (priority 2003, published 2005)
# Read-outs that look alike come from different tables or passages of the source.
# Experiments:
# dogs [1] = test: two-bowl preference test, Example 3 (Canine w/d, 3.5% test flavor); format: in vivo, dog; details: dry wt. of kibble, test flavor 3.5%
# Description: Each of the test flavors (3.5%, dry weight basis) was topically applied to a dry, commercial dog food (Canine w/d from Hill's Pet Nutrition, Inc.) after topical application of a commercial dry palatant enhancer in choice white grease (0.6%, dry weight basis) to form a test composition. Each test composition was compared against a control composition in a palatability test as described in Example 1. The control compositions were prepared by topically applying the commercial liquid palatant enhancer (3.5% dry weight basis) to the dry, commercial dog food (Canine w/d) after application of a commercial dry palatant enhancer in choice white grease (0.6%, dry weight basis). Palatability was determined by comparing the test composition and the control composition in a standard two-bowl preference test over two days with 20 dogs as described in Example 1.
# dogs [2] = test: two-bowl preference test, Example 4 (Canine w/d, 2.4% test flavor); format: in vivo, dog; details: dry wt. of kibble, test flavor 2.4%
# Description: The experiment comprised mixing various amounts of 2,5-dimethyl-4-hydroxy-3(2H)-furanone with a commercial liquid palatant enhancer as a carrier to form a test flavor. Each of the test flavors (2.4%, dry weight basis) was topically applied to a dry, commercial dog food (Canine w/d from Hill's Pet Nutrition, Inc.) after application of a commercial dry palatant enhancer in choice white grease (0.6%, dry weight basis) to form a test composition. […] The control compositions were prepared by topically applying the commercial liquid palatant enhancer (2.4% dry weight basis) to the dry, commercial dog food (Canine w/d) after application of a commercial dry palatant enhancer in choice white grease (0.6%, dry weight basis). Palatability was determined by comparing the test composition and the control composition in a standard two-bowl preference test over two days with 20 dogs as described in Example 1.
# dogs [3] = test: two-bowl preference test, Example 2 (Canine r/d); format: in vivo, dog; details: dry wt. of kibble
# Description: Each of the test flavors (2.0%, dry weight basis) was topically applied to a dry, commercial dog food (Canine r/d from Hill's Pet Nutrition, Inc.) after sequential application of soy bean oil (2.0%, dry weight basis) and choice white grease (0.4%, dry weight basis) to form a test composition. Each test composition was compared against a control composition in a palatability test as described in Example 1. The control compositions were prepared by topically applying the commercial liquid palatant enhancer (2.0% dry weight basis) to the dry, commercial dog food (Canine r/d) after sequential application of soy bean oil (2.0%, dry weight basis) and choice white grease (0.4%, dry weight basis). Palatability was determined by comparing the test composition and the control composition in a standard two-bowl preference test over two days with 20 dogs as described in Example 1.
# dogs [4] = details: for Intake Ratio / Preference (%) control composition / Preference (%) test composition / Status (vs. control): dry wt. of kibble, dogs, Hill's Canine Maintenance Adult
# Excerpt: The experiment comprised mixing various amounts of 2,5-dimethyl-4-hydroxy-3(2H)-furanone (0.2% to 1.2%) with a commercial liquid palatant enhancer as a carrier to form a flavored palatant (hereinafter test flavor). The test flavor (2.0%, dry weight basis) was topically applied to a dry, commercial dog food (Hill's Canine Maintenance Adult, a Science Diet for adult dogs commercially available from Hill's Pet Nutrition, Inc., Topeka, Kans.) after sequential application of soy bean oil (1.2%, dry weight basis) and choice white grease (7.9%, dry weight basis) to form a test composition.
# Each test composition was compared against a control composition in a palatability test. The control compositions were prepared by topically applying the commercial liquid palatant enhance (2.0% dry weight basis) to the dry, commercial dog food (Hill's Canine Maintenance Adult) after sequential application of soy bean oil (1.2%, dry weight basis) and choice white grease (7.9%, dry weight basis). Palatability was determined by comparing the test composition and the control composition in a standard two-bowl preference test over two days with 20 dogs.
# [5] = Exp. No. 6, second set of experiments, 87.1 ppm
# [6] = Exp. No. 7, second set of experiments, 130.5 ppm
# [7] = Exp. No. 8, second set of experiments, 174.0 ppm
# [8] = Exp. No. 9, second set of experiments, 217.5 ppm
# [9] = Exp. No. 10, second set of experiments, 282.8 ppm
smiles,measurement,setting,value
"CC1=C(O)C(=O)C(C)O1 (centres unmarked) [2,5-dimethyl-4-hydroxy-3(2H)-furanone]",Intake Ratio,"dogs [1]; Exp. No. 1, 87.1 ppm",0.7301
same,Preference (%) control composition,"dogs [1]; Exp. No. 1, 87.1 ppm",16.7%
same,Preference (%) test composition,"dogs [1]; Exp. No. 1, 87.1 ppm",83.3%
same,Status (vs. control),"dogs [1]; Exp. No. 1, 87.1 ppm",Win
same,Intake Ratio,"dogs [1]; Exp. No. 2, 130.5 ppm",0.7323
same,Preference (%) control composition,"dogs [1]; Exp. No. 2, 130.5 ppm",8.0%
same,Preference (%) test composition,"dogs [1]; Exp. No. 2, 130.5 ppm",88.0%
same,Status (vs. control),"dogs [1]; Exp. No. 2, 130.5 ppm",Win
same,Intake Ratio,"dogs [1]; Exp. No. 3, 174.0 ppm",0.6669
same,Preference (%) control composition,"dogs [1]; Exp. No. 3, 174.0 ppm",24.0%
same,Preference (%) test composition,"dogs [1]; Exp. No. 3, 174.0 ppm",76.0%
same,Status (vs. control),"dogs [1]; Exp. No. 3, 174.0 ppm",Win
same,Intake Ratio,"dogs [1]; Exp. No. 4, 217.5 ppm",0.5713
same,Preference (%) control composition,"dogs [1]; Exp. No. 4, 217.5 ppm",40.0%
same,Preference (%) test composition,"dogs [1]; Exp. No. 4, 217.5 ppm",60.0%
same,Status (vs. control),"dogs [1]; Exp. No. 4, 217.5 ppm",Parity
same,Intake Ratio,"dogs [2]; Exp. No. 1, 87.1 ppm",0.6939
same,Preference (%) control composition,"dogs [2]; Exp. No. 1, 87.1 ppm",16.0%
same,Preference (%) test composition,"dogs [2]; Exp. No. 1, 87.1 ppm",76.0%
same,Status (vs. control),"dogs [2]; Exp. No. 1, 87.1 ppm",Win
same,Intake Ratio,"dogs [2]; Exp. No. 2, 130.5 ppm",0.6616
same,Preference (%) control composition,"dogs [2]; Exp. No. 2, 130.5 ppm",28.0%
same,Preference (%) test composition,"dogs [2]; Exp. No. 2, 130.5 ppm",72.0%
same,Status (vs. control),"dogs [2]; Exp. No. 2, 130.5 ppm",Win
same,Intake Ratio,"dogs [2]; Exp. No. 3, 174.0 ppm",0.6947
same,Preference (%) control composition,"dogs [2]; Exp. No. 3, 174.0 ppm",24.0%
same,Preference (%) test composition,"dogs [2]; Exp. No. 3, 174.0 ppm",76.0%
same,Status (vs. control),"dogs [2]; Exp. No. 3, 174.0 ppm",Win
same,Intake Ratio,"dogs [2]; Exp. No. 4, 217.5 ppm",0.7773
same,Preference (%) control composition,"dogs [2]; Exp. No. 4, 217.5 ppm",8.0%
same,Preference (%) test composition,"dogs [2]; Exp. No. 4, 217.5 ppm",92.0%
same,Status (vs. control),"dogs [2]; Exp. No. 4, 217.5 ppm",Win
same,Intake Ratio,"dogs [2]; Exp. No. 5, 282.8 ppm",0.8079
same,Preference (%) control composition,"dogs [2]; Exp. No. 5, 282.8 ppm",8.3%
same,Preference (%) test composition,"dogs [2]; Exp. No. 5, 282.8 ppm",87.5%
same,Status (vs. control),"dogs [2]; Exp. No. 5, 282.8 ppm",Win
same,Intake Ratio,dogs [2]; [5],0.6058
same,Preference (%) control composition,dogs [2]; [5],40.0%
same,Preference (%) test composition,dogs [2]; [5],60.0%
same,Status (vs. control),dogs [2]; [5],Win
same,Intake Ratio,dogs [2]; [6],0.6857
same,Preference (%) control composition,dogs [2]; [6],24.0%
same,Preference (%) test composition,dogs [2]; [6],76.0%
same,Status (vs. control),dogs [2]; [6],Win
same,Intake Ratio,dogs [2]; [7],0.5568
same,Preference (%) control composition,dogs [2]; [7],40.0%
same,Preference (%) test composition,dogs [2]; [7],56.0%
same,Status (vs. control),dogs [2]; [7],Parity
same,Intake Ratio,dogs [2]; [8],0.5453
same,Preference (%) control composition,dogs [2]; [8],40.0%
same,Preference (%) test composition,dogs [2]; [8],60.0%
same,Status (vs. control),dogs [2]; [8],Parity
same,Intake Ratio,dogs [2]; [9],0.7429
same,Preference (%) control composition,dogs [2]; [9],16.0%
same,Preference (%) test composition,dogs [2]; [9],84.0%
same,Status (vs. control),dogs [2]; [9],Win
same,Intake Ratio,"dogs [3]; Exp. No. 1, 21.75 ppm",0.5843
same,Preference (%) control composition,"dogs [3]; Exp. No. 1, 21.75 ppm",42.9%
same,Preference (%) test composition,"dogs [3]; Exp. No. 1, 21.75 ppm",50.0%
same,Status (vs. control),"dogs [3]; Exp. No. 1, 21.75 ppm",Parity
same,Intake Ratio,"dogs [3]; Exp. No. 2, 43.5 ppm",0.6667
same,Preference (%) control composition,"dogs [3]; Exp. No. 2, 43.5 ppm",16.7%
same,Preference (%) test composition,"dogs [3]; Exp. No. 2, 43.5 ppm",77.8%
same,Status (vs. control),"dogs [3]; Exp. No. 2, 43.5 ppm",Win
same,Intake Ratio,"dogs [3]; Exp. No. 3, 87.1 ppm",0.5732
same,Preference (%) control composition,"dogs [3]; Exp. No. 3, 87.1 ppm",29.4%
same,Preference (%) test composition,"dogs [3]; Exp. No. 3, 87.1 ppm",64.7%
same,Status (vs. control),"dogs [3]; Exp. No. 3, 87.1 ppm",Parity
same,Intake Ratio,"dogs [3]; Exp. No. 4, 174.0 ppm",0.5523
same,Preference (%) control composition,"dogs [3]; Exp. No. 4, 174.0 ppm",31.3%
same,Preference (%) test composition,"dogs [3]; Exp. No. 4, 174.0 ppm",50.0%
same,Status (vs. control),"dogs [3]; Exp. No. 4, 174.0 ppm",Parity
same,Intake Ratio,"dogs [3]; Exp. No. 5, 217.5 ppm",0.5047
same,Preference (%) control composition,"dogs [3]; Exp. No. 5, 217.5 ppm",66.7%
same,Preference (%) test composition,"dogs [3]; Exp. No. 5, 217.5 ppm",33.3%
same,Status (vs. control),"dogs [3]; Exp. No. 5, 217.5 ppm",Parity
same,Intake Ratio,"dogs [3]; Exp. No. 6, 282.8 ppm",0.4297
same,Preference (%) control composition,"dogs [3]; Exp. No. 6, 282.8 ppm",47.1%
same,Preference (%) test composition,"dogs [3]; Exp. No. 6, 282.8 ppm",52.9%
same,Status (vs. control),"dogs [3]; Exp. No. 6, 282.8 ppm",Parity
same,Intake Ratio,"dogs [4]; Exp. No. 2, 43.5 ppm",0.5705
same,Preference (%) control composition,"dogs [4]; Exp. No. 2, 43.5 ppm",27.8%
same,Preference (%) test composition,"dogs [4]; Exp. No. 2, 43.5 ppm",61.1%
same,Status (vs. control),"dogs [4]; Exp. No. 2, 43.5 ppm",Parity
same,Intake Ratio,"dogs [4]; Exp. No. 3, 87.1 ppm",0.7361
same,Preference (%) control composition,"dogs [4]; Exp. No. 3, 87.1 ppm",10.0%
same,Preference (%) test composition,"dogs [4]; Exp. No. 3, 87.1 ppm",90.0%
same,Status (vs. control),"dogs [4]; Exp. No. 3, 87.1 ppm",Win
same,Intake Ratio,"dogs [4]; Exp. No. 4, 130.5 ppm",0.5673
same,Preference (%) control composition,"dogs [4]; Exp. No. 4, 130.5 ppm",25.0%
same,Preference (%) test composition,"dogs [4]; Exp. No. 4, 130.5 ppm",50.0%
same,Status (vs. control),"dogs [4]; Exp. No. 4, 130.5 ppm",Win
same,Intake Ratio,"dogs [4]; Exp. No. 5, 217.5 ppm",0.6575
same,Preference (%) control composition,"dogs [4]; Exp. No. 5, 217.5 ppm",40.0%
same,Preference (%) test composition,"dogs [4]; Exp. No. 5, 217.5 ppm",60.0%
same,Status (vs. control),"dogs [4]; Exp. No. 5, 217.5 ppm",Win
same,Intake Ratio,"dogs [4]; Exp. No. 6, 217.5 ppm",0.8206
same,Preference (%) control composition,"dogs [4]; Exp. No. 6, 217.5 ppm",5.0%
same,Preference (%) test composition,"dogs [4]; Exp. No. 6, 217.5 ppm",95.0%
same,Status (vs. control),"dogs [4]; Exp. No. 6, 217.5 ppm",Win
same,intolerance of the test palatant following intake,"dogs [4]; dog, in vivo",No evidence of any intolerance
